Reference: PubChem BioAssay (NCI)
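Assay format: 96-well plates, 48-hour exposure. GI50 marks 50% less growth. TGI: concentration producing complete growth inhibition.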

Experiments:
Test in all cases: DTP human tumour cell line panel, 48 h
[1] = tested on: 786-0 renal
[2] = tested on: A549 NSCLC
[3] = tested on: ACHN renal
[4] = tested on: BT-549 breast
[5] = tested on: CAKI-1 renal
[6] = tested on: CCRF-CEM leukemia
[7] = tested on: COLO 205 colon
[8] = tested on: EKVX NSCLC
[9] = tested on: HCC-2998 colon
[10] = tested on: HCT-116 colon
[11] = tested on: HCT-15 colon
[12] = tested on: HL-60(TB) leukemia
[13] = tested on: HOP-62 NSCLC
[14] = tested on: HOP-92 NSCLC
[15] = tested on: HS 578T breast
[16] = tested on: HT29 colon
[17] = tested on: IGROV1 ovarian
[18] = tested on: K-562 leukemia
[19] = tested on: KM12 colon
[20] = tested on: M14 melanoma
[21] = tested on: MALME-3M melanoma
[22] = tested on: MCF7 breast
[23] = tested on: MDA-MB-231 breast
[24] = tested on: MDA-MB-435
[25] = tested on: MOLT-4 leukemia
[26] = tested on: NCI-H226 lung
[27] = tested on: NCI-H23 lung
[28] = tested on: NCI-H460 lung
[29] = tested on: NCI-H522 lung
[30] = tested on: NCI/ADR-RES ovarian
[31] = tested on: OVCAR-3 ovarian
[32] = tested on: OVCAR-4 ovarian
[33] = tested on: OVCAR-5 ovarian
[34] = tested on: OVCAR-8 ovarian
[35] = tested on: PC-3 prostate
[36] = tested on: RPMI-8226 leukemia
[37] = tested on: RXF 393 renal
[38] = tested on: SF-268 CNS
[39] = tested on: SF-295 CNS
[40] = tested on: SF-539 CNS
[41] = tested on: SK-MEL-2 melanoma
[42] = tested on: SK-MEL-28 melanoma
[43] = tested on: SK-MEL-5 melanoma
[44] = tested on: SK-OV-3 ovarian
[45] = tested on: SNB-19 CNS
[46] = tested on: SNB-75 CNS
[47] = tested on: SR leukemia
[48] = tested on: SW-620 colon
[49] = tested on: TK-10 renal
[50] = tested on: U251 CNS
[51] = tested on: UACC-257 melanoma
[52] = tested on: UACC-62 melanoma
[53] = tested on: UO-31 renal
[54] = tested on: A498 renal
[55] = tested on: DU-145 prostate
[56] = tested on: LOX IMVI melanoma
[57] = tested on: SN12C renal

For Cc1cccc(NS(=O)(=O)c2ccc(N=Nc3c(O)c(C(=O)O)cc4ccccc34)cc2)n1, the TGI [1] was > 100 µM, the TGI [2] was > 100 µM and the TGI [3] was > 100 µM. The TGI [4] was > 100 µM, the TGI [5] was > 100 µM and the TGI [6] was > 100 µM. The TGI [7] was > 100 µM, the TGI [8] was > 100 µM and the TGI [9] was > 100 µM. For the same molecule, the TGI [10] was > 100 µM, the TGI [11] was > 100 µM and the TGI [12] was > 100 µM. For the same molecule, the TGI [13] was > 100 µM, the TGI [14] was > 100 µM and the TGI [15] was > 100 µM. For the same molecule, the TGI [16] was > 100 µM, the TGI [17] was > 100 µM and the TGI [18] was > 100 µM. For the same molecule, the TGI [19] was > 100 µM, the TGI [20] was > 100 µM and the TGI [21] was > 100 µM. For the same molecule, the TGI [22] was > 100 µM, the TGI [23] was > 100 µM and the TGI [24] was > 100 µM. For the same molecule, the TGI [25] was > 100 µM, the TGI [26] was > 100 µM and the TGI [27] was > 100 µM. For the same molecule, the TGI [28] was > 100 µM, the TGI [29] was > 100 µM and the TGI [30] was > 100 µM. For the same molecule, the TGI [31] was > 100 µM, the TGI [32] was > 100 µM and the TGI [33] was > 100 µM. The TGI [34] was > 100 µM, the TGI [35] was > 100 µM and the TGI [36] was > 100 µM. For the same molecule, the TGI [37] was > 100 µM, the TGI [38] was > 100 µM and the TGI [39] was > 100 µM. For the same molecule, the TGI [40] was > 100 µM, the TGI [41] was > 100 µM and the TGI [42] was > 100 µM. The TGI [43] was > 100 µM, the TGI [44] was > 100 µM and the TGI [45] was > 100 µM. The TGI [46] was > 100 µM, the TGI [47] was > 100 µM and the TGI [48] was > 100 µM. For the same molecule, the TGI [49] was > 100 µM, the TGI [50] was > 100 µM and the TGI [51] was > 100 µM. The TGI [52] was > 100 µM and the TGI [53] was > 100 µM.

In the case of Nc1cc(N)c2nc(-c3ccccc3)c(Oc3ccc(F)cc3)nc2c1, the GI50 [1] is reported as 15.7 µM, the TGI [1] is reported as 36.3 µM and the GI50 [54] is reported as 21.9 µM. For the same molecule, the TGI [54] was 39.6 µM, the GI50 [2] was 24.2 µM and the TGI [2] was 46.3 µM. For the same molecule, the GI50 [3] was 21.8 µM, the TGI [3] was 85.9 µM and the GI50 [4] was 15 µM. The TGI [4] was 34.8 µM, the GI50 [5] was 19.4 µM and the TGI [5] was 37 µM. For the same molecule, the GI50 [7] was 20 µM, the TGI [7] was 36.5 µM and the GI50 [55] was 17.2 µM. It also gave a TGI [55] of 36.8 µM, a GI50 [8] of 14.6 µM and a TGI [8] of 33.7 µM. The GI50 [10] was 14.8 µM, the TGI [10] was 80.7 µM and the GI50 [11] was 36 µM. For the same molecule, the TGI [11] was > 100 µM, the GI50 [12] was 18.5 µM and the TGI [12] was 64.8 µM. The GI50 [13] was 21.5 µM, the TGI [13] was 49.5 µM and the GI50 [14] was 12.2 µM. It also gave a TGI [14] of 29.8 µM, a GI50 [15] of 19.8 µM and a TGI [15] of 53.7 µM. The GI50 [16] was 22.7 µM, the TGI [16] was 50.7 µM and the GI50 [17] was 28.5 µM. For the same molecule, the TGI [17] was > 100 µM, the GI50 [18] was 10.9 µM and the TGI [18] was > 100 µM. The GI50 [19] was 14.5 µM, the TGI [19] was 40.3 µM and the GI50 [56] was 43.3 µM. The TGI [56] was > 100 µM, the GI50 [20] was 17.1 µM and the TGI [20] was 45 µM. For the same molecule, the GI50 [22] was 20.3 µM, the TGI [22] was > 100 µM and the GI50 [23] was 3.87 µM. The TGI [23] was 28.8 µM, the GI50 [24] was 15.8 µM and the TGI [24] was 32.6 µM. For the same molecule, the GI50 [25] was 6.58 µM, the TGI [25] was > 100 µM and the GI50 [26] was 20.3 µM. It also gave a TGI [26] of 49.1 µM, a GI50 [27] of 20.7 µM and a TGI [27] of 40.2 µM. The GI50 [28] was 39.6 µM, the TGI [28] was > 100 µM and the GI50 [29] was 64.7 µM. The TGI [29] was > 100 µM, the GI50 [30] was 18.2 µM and the TGI [30] was 36.1 µM. For the same molecule, the GI50 [31] was 15.4 µM, the TGI [31] was 41.7 µM and the GI50 [32] was 8.32 µM. The TGI [32] was 35.2 µM, the GI50 [33] was 20.6 µM and the TGI [33] was 47.6 µM. It also gave a GI50 [34] of 22.5 µM, a TGI [34] of 47.4 µM and a GI50 [35] of 7.27 µM. The TGI [35] was 46.3 µM, the GI50 [36] was 12.2 µM and the TGI [36] was 46.4 µM. The GI50 [37] was 21.1 µM, the TGI [37] was 46.5 µM and the GI50 [38] was 13.8 µM. For the same molecule, the TGI [38] was 47.6 µM, the GI50 [39] was 20.3 µM and the TGI [39] was 38.5 µM. It also gave a GI50 [40] of 18.1 µM, a TGI [40] of 35.7 µM and a GI50 [41] of 43 µM. For the same molecule, the TGI [41] was > 100 µM, the GI50 [42] was 19.4 µM and the TGI [42] was 46.5 µM. For the same molecule, the GI50 [43] was 12.2 µM, the TGI [43] was 31.8 µM and the GI50 [44] was 20.7 µM. It also gave a TGI [44] of 41.4 µM, a GI50 [57] of 19.3 µM and a TGI [57] of 52.7 µM. It also gave a GI50 [45] of 17.3 µM, a TGI [45] of 33.8 µM and a GI50 [46] of 23.5 µM. The TGI [46] was 49.4 µM, the GI50 [47] was 8.15 µM and the TGI [47] was > 100 µM. The GI50 [48] was 19.5 µM, the TGI [48] was 50.1 µM and the GI50 [49] was 20.4 µM. For the same molecule, the TGI [49] was 46.3 µM, the GI50 [50] was 23.2 µM and the TGI [50] was 78.6 µM. It also gave a GI50 [51] of 23.2 µM, a TGI [51] of 42.6 µM and a GI50 [52] of 15.8 µM. For the same molecule, the TGI [52] was 33.2 µM, the GI50 [53] was 29.6 µM and the TGI [53] was > 100 µM.
